Source: US5654422A, “Acylated γ-cyclodextrins” (priority 1994, dated 1997)
Read-outs that look alike come from different tables or passages of the source. One block for each molecule: values may come before it.

Key:
[1] = G. Antlsperger, 6th International Symposium on Cyclodextrins, 1992; cited from earlier work
[2] = cited from earlier work
[3] = cited from earlier work; remark: listed apart in the source
[4] = zahn-wellens test, 336 h
Protocol: The biological degradability was determined by means of the Zahn-Wellens Test (OECD Guidelines for testing of Chemicals 302B, Adopted by the Council on 17th Jul. 1992).

Molecule: OC[C@H]1O[C@@H]2O[C@H]3[C@H](O)[C@@H](O)[C@@H](O[C@H]4[C@H](O)[C@@H](O)[C@@H](O[C@H]5[C@H](O)[C@@H](O)[C@@H](O[C@H]6[C@H](O)[C@@H](O)[C@@H](O[C@H]7[C@H](O)[C@@H](O)[C@@H](O[C@H]8[C@H](O)[C@@H](O)[C@@H](O[C@H]9[C@H](O)[C@@H](O)[C@@H](O[C@H]1[C@H](O)[C@H]2O)O[C@@H]9CO)O[C@@H]8CO)O[C@@H]7CO)O[C@@H]6CO)O[C@@H]5CO)O[C@@H]4CO)O[C@@H]3CO [γ-CD, γ-cyclodextrin]
- toxicological properties [1]: favorable toxicological properties
- precipitation of complexes at higher concentrations ([2]; U.S. Pat. No. 4,764,604): frequently precipitate out at higher concentrations
- solubilizing capacity / properties ([2]; prior art statement): comparatively low
- solubility in water ([3]; native γ-cyclodextrin): 18.7 % by weight
- solubility in water ([3]; prior art statement): comparatively poorly soluble in water

- Degradation ZaWe-14d [4]: 98%
Molecule: Acetyl-γ-CD (DS, 0.83) [Ex. 2 Ac-gamma-CD(0.83)]

- Degradation ZaWe-14d [4]: 14%
Molecule: Methyl-γ-cyclodextrin (DS,1.8) [Me-gamma-CD(1.8)]

- Degradation ZaWe-14d [4]: 25%
Molecule: hydroxypropyl-γ-cyclodextrin [Hp-gamma-CD(0.9)]
